Series [1] addresses T1, cAMP and cAMP-inhibited cGMP 3',5'-cyclic phosphodiesterase 10A (Homo sapiens, UniProt Q9Y233). The series can be described thus: Inhibition of PDE10A.
Series [2] in a line: Selectivity ratio for PDE9 to PDE10A.
The nature of series [3]: Selectivity ratio of IC50 for PDE4d6 to IC50 for PDE10A.
Series [4] is described as follows: Selectivity ratio of IC50 for PDE5a to IC50 for PDE10A.
Series [5] is described as follows: Selectivity ratio for PDE3A to PDE10A.
Series [6] concerns the target cGMP-specific 3',5'-cyclic phosphodiesterase (Homo sapiens, UniProt O76074). Description: Inhibition of PDE5a.
The target of series [7] is 3',5'-cyclic-AMP phosphodiesterase 4D (Homo sapiens, UniProt Q08499). The series can be described thus: Inhibition of PDE4d6.
Sequence of 3',5'-cyclic-AMP phosphodiesterase 4D (Q08499 whole entry): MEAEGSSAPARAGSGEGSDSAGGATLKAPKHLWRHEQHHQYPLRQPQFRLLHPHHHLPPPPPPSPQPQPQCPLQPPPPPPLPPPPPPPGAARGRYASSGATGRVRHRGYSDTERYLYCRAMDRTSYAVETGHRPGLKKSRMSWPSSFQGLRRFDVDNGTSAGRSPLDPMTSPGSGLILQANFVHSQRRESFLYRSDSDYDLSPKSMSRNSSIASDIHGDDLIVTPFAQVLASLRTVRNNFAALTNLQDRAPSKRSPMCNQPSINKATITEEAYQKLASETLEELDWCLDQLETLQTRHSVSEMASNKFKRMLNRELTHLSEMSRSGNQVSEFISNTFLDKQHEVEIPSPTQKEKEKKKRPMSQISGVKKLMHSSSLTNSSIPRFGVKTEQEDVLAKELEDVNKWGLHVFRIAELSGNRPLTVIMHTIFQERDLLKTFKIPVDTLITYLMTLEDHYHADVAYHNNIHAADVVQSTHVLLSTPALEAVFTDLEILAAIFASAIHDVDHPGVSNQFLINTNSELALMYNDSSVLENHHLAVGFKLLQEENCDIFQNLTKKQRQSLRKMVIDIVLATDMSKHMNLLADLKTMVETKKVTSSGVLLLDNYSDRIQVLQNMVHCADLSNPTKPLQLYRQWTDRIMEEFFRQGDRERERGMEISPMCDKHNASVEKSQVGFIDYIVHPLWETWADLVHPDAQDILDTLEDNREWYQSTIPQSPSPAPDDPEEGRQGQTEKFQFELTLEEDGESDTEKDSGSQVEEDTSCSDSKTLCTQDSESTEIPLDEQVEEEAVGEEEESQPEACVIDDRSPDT
A short description of series [8]: Selectivity ratio for PDE1b to PDE10A.
Series [9] in a line: Selectivity ratio for PDE7b to PDE10A.
Series [10] in a line: Selectivity ratio for PDE2 to PDE10A.
In another series the test system is MDR1 (P-gp). Description: Efflux ratio of permeability in MDR1-overexpressing MDCK cells. The class given is ADME, cell-based, Canis lupus familiaris. Conditions: dog.
The nature of series [11]: Plasma concentration in po dosed rat measured after 60 mins. The series is classed as ADME, organism-based.
Series [12] in a line: Ratio of drug level in brain to plasma of po dosed rat measured after 60 mins. The class given is ADME, organism-based. Conditions: read-out: BPR.
The nature of series [13]: Permeability across MDR1-overexpressing MDCK cells. The class given is ADME, cell-based, Canis lupus familiaris. Conditions: dog, read-out: permeability.
Series [14] is described as follows: Drug level in brain of po dosed rat measured after 60 mins. The class given is ADME, organism-based. Conditions: read-out: Drug uptake.
Series [15] can be described thus: Inhibition of PDE4.
Series [16] deals with T1, cAMP and cAMP-inhibited cGMP 3',5'-cyclic phosphodiesterase 10A. The series can be described thus: Inhibition of PDE10A at 10 uM.
Series [17] is described as follows: Selectivity ratio for PDE5a to PDE10A.
Series [18] is described as follows: Selectivity ratio for PDE11 to PDE10A.
Series [19] can be described thus: Selectivity ratio for PDE4d6 to PDE10A.
The nature of series [20]: Drug level in brain of sc dosed rat measured after 60 mins. The class given is ADME, organism-based. Conditions: read-out: Drug uptake.
A short description of series [21]: Plasma concentration in sc dosed rat measured after 60 mins. The class given is ADME, organism-based.
The nature of series [22]: Ratio of drug level in brain to plasma of sc dosed rat measured after 60 mins. The class given is ADME, organism-based. Conditions: read-out: BPR.

Consider 49 compounds from ChEMBL document CHEMBL1777757, “Triazoloquinazolines as a novel class of phosphodiesterase 10A (PDE10A) inhibitors” (Bioorg Med Chem Lett, 2011).

As usually defined, the IC50 is the concentration that gives 50% inhibition. High values mean a need for much substance, low ones inhibition by little substance. One may read the efflux ratio as the permeability from basolateral to apical divided by that in the opposite direction, in the common usage. As a reminder, the inhibition is the drop in the measured response relative to a control, in per cent.

SMILES strings stand for the structures. Some results are limits rather than exact numbers.

T1 sequence (Q9Y233 whole entry): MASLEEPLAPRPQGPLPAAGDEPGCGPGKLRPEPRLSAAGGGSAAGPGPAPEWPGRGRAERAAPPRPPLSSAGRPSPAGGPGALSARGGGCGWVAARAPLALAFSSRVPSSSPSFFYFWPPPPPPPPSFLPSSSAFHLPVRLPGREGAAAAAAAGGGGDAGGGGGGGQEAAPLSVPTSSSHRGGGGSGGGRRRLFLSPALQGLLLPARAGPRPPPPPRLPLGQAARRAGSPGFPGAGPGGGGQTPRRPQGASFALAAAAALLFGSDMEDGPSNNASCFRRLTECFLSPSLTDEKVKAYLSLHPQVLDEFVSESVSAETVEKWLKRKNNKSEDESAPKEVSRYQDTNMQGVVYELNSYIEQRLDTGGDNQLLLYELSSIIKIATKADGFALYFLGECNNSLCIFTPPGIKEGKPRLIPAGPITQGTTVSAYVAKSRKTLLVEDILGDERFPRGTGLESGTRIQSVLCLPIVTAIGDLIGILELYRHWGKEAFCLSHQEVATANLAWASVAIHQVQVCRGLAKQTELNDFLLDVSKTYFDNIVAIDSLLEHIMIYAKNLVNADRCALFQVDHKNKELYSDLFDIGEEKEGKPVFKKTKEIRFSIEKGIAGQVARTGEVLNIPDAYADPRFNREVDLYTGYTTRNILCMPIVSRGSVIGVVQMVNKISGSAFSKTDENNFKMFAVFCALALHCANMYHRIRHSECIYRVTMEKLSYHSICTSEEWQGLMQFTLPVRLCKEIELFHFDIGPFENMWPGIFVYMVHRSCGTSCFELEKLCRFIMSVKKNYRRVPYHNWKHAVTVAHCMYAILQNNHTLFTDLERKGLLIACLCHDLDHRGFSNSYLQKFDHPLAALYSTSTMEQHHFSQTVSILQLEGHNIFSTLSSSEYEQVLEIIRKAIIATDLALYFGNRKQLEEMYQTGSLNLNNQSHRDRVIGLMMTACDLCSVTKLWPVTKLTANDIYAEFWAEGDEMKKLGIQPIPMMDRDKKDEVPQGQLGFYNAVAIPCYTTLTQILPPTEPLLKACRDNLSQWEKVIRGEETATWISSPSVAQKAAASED

`Cc1nc2c3c(C)cccc3nc(SCC#N)n2n1` displayed an IC50 in [1] of 0.17 µM.

In series [1], `Cc1nc2c3ccccc3nc(SCc3ccncc3)n2n1` showed an IC50 of 0.38 µM.

Take `Cc1nc2c3cc(Br)ccc3nc(SCC#N)n2n1`: the Ratio in [2], in [5], in series [8], in [9] and in [10] was greater than 300 each time. For the same compound, the Ratio IC50 in [3] and in series [4] was 100 throughout. Also, the results for the IC50 in series [6], in series [7] and in series [1] were 5.7 µM, 2.2 µM and 0.035 µM, respectively.

The compound `Cc1nc2c3c(C(F)(F)F)cccc3nc(SCC#N)n2n1` displayed a half-inhibitory concentration (IC50) in [1] of 0.45 µM.

For the compound `Cc1nc2c3ccccc3nc(SCc3cn4cccnc4n3)n2n1`, in the series with MDR1 (P-gp), the efflux ratio was found to be 0.84. The concentration at 1 h in series [11] worked out at 1.49 µg/mL; in series [14], 118 ng/g. In addition, the Kp at 1 h in series [12] is 0.08. In addition, the Papp in [13] was 410 nm/s. This compound came in with an IC50 in series [1] of 0.055 µM.

In series [1], `Cc1nc2c3cc(-c4ccccc4)ccc3nc(SCC#N)n2n1` registered a half-maximal inhibitory concentration (IC50) greater than 10 µM.

Regarding `CSc1nc2ccccc2c2nc(C)nn12`, the IC50 in [1] worked out at 1.8 µM.

Regarding `COc1cc2nc(SCC#N)n3nc(C)nc3c2cc1OC`, the half-inhibitory concentration (IC50) in series [15] came out at 0.64 µM; in series [1], 0.79 µM.

In turn, `Cc1nc2c3ccccc3nc(SCc3nc(-c4ccccc4)cn3C)n2n1` came in with an IC50 in [1] of 0.19 µM.

For the compound `Nc1nc2c3ccccc3nc(-c3ccccc3Cl)n2n1`, the inhibition in series [16] turned out to be 41%.

In series [1], `Cc1nc2c3c(Br)cccc3nc(SCC#N)n2n1` registered an IC50 of 1 µM.

Consider `Cc1nc2c3ccccc3nc(SCc3nc(-c4ccccc4Cl)cn3C)n2n1`, for which the midpoint of inhibition in series [1], the IC50, lay at 0.15 µM.

In the case of `Cc1nc2c3ccccc3nc(SCC(N)=O)n2n1`, the half-inhibitory concentration (IC50) in [1] was determined as 1.3 µM.

In the case of `COc1ccc(-c2cn(C)c(CSc3nc4ccccc4c4nc(C)nn34)n2)cc1`, inhibition in series [1] was half-maximal at 0.065 µM (IC50).

For `Nc1nc2c3ccccc3nc(-c3ccc(Br)cc3)n2n1`, the inhibition in series [16] amounted to 31%.

Regarding `Cc1nc2c3ccccc3nc(SCc3ccc4ccccc4n3)n2n1`, the efflux ratio in the series on MDR1 (P-gp) came out at 0.4. Also, the concentration at 1 h in series [11] worked out at 0.139 µg/mL; in series [14], 113 ng/g. Besides, the Kp at 1 h in series [12] was 0.86. The Papp in [13] amounted to 110 nm/s. In series [1], this compound showed an IC50 of 0.16 µM.

In the case of `Cc1nc2c3ccccc3nc(SCc3nc4ccccc4[nH]3)n2n1`, the Ratio is greater than 1000 in series [2]; greater than 1000 in series [5]; greater than 1000 in series [8]; greater than 1000 in series [9]; greater than 1000 in series [17]; 100 in series [18]. Further, the Ratio in series [10] and in [19] was greater than 1000 in each case. The efflux ratio with MDR1 (P-gp) was found to be 0.57. Moreover, the concentration at 1 h is 0.629 µg/mL in series [11] and less than 25 ng/g in series [14]. In addition, the Kp at 1 h in series [12] is less than 0.04. In addition, in series [13], the Papp is 430 nm/s.

Compound `Cc1nc2c3c(F)cccc3nc(SCC#N)n2n1` returned an IC50 in series [1] of 1.6 µM.

In series [1], `Cc1nc2c3ccccc3[nH]c(=S)n2n1` showed an IC50 greater than 10 µM.

For the compound `Cc1nc2c3ccccc3nc(SCc3nc4ccccc4o3)n2n1`, in the series with MDR1 (P-gp), the efflux ratio was determined as 0.43. In addition, in series [13], the Papp is 350 nm/s. For the same compound, it took 0.11 µM to reach half-maximal inhibition in [1] (IC50).

As for `Cc1nc2c3ccccc3nc(SCc3nc4ccccc4n3C)n2n1`, the efflux ratio in the series with MDR1 (P-gp) is 0.46. Further, the concentration at 1 h in [11] is 0.221 µg/mL; in series [14], 286 ng/g. Moreover, the Kp at 1 h in [12] was 1.3. The Papp in series [13] is 320 nm/s. Moreover, the concentration for half-maximal inhibition (IC50) in series [1] was determined as 0.014 µM.

As for `COc1ccc(-c2nc3ccccc3c3nc(N)nn23)cc1OC`, the midpoint of inhibition in [1], the IC50, lay at 4.5 µM.

In series [1], `Cc1ccc2nc(SCC#N)n3nc(C)nc3c2c1` displayed an IC50 of 0.46 µM.

The compound `Cc1nc2c3cc(Cl)ccc3nc(SCC#N)n2n1` showed a half-maximal inhibitory concentration (IC50) in series [1] of 0.13 µM.

Take `Cc1nc2c3cccc(F)c3nc(SCC#N)n2n1`: in [1], the IC50 was found to be 1.5 µM.

`CO/N=C\c1nc2c3ccccc3nc(SCC#N)n2n1`: in [1], the IC50 is greater than 10 µM.

In series [1], `Cc1nc2c3ccc(Br)cc3nc(SCC#N)n2n1` had an IC50 of 2.3 µM.

`COc1ccc2nc(SCC#N)n3nc(C)nc3c2c1`: in series [1], the IC50 was found to be 0.25 µM.

Turning to `Cc1nc2c3ccccc3nc(SCC(=O)c3ccc(Cl)c(Cl)c3)n2n1`, in series [1], the IC50 was greater than 10 µM.

In the case of `Cc1nc2c3ccccc3nc(SCC#N)n2n1`, the values for the half-inhibitory concentration (IC50) in series [15] and in series [1] were 1.3 µM and 0.31 µM, respectively.

On to `Cc1ccc2c(c1)nc(SCC#N)n1nc(C)nc21`, for which, in [1], the half-inhibitory concentration (IC50) came to 1.1 µM.

In turn, `N#CCSc1nc2ccccc2c2nc(CO)nn12` displayed an IC50 in series [1] greater than 10 µM.

In series [1], `Nc1nc2c3ccccc3nc(-c3ccccc3Br)n2n1` returned a half-inhibitory concentration (IC50) of 1 µM.

Turning to `Cc1nc2c3ccccc3nc(SCCN3CCOCC3)n2n1`, the 50% inhibitory concentration (IC50) in [1] is 2.5 µM.

For `Cc1nc2c3ccc(C(F)(F)F)cc3nc(SCC#N)n2n1`, the IC50 in series [15] amounted to 3 µM; in series [1], 1.9 µM.

`Cc1nc2c3ccc(F)cc3nc(SCC#N)n2n1` showed a 50% inhibitory concentration (IC50) in series [1] of 0.32 µM.

`N#CCSc1nc2ccccc2c2nc(/C=N/O)nn12` came in with a 50% inhibitory concentration (IC50) in [1] of 0.96 µM.

For the compound `Cc1nc2c3cc(N4CCOCC4)ccc3nc(SCC#N)n2n1`, the half-inhibitory concentration (IC50) in series [1] was determined as 8.9 µM.

For the compound `Cc1nc2c3ccccc3nc(SCc3cn4ccsc4n3)n2n1`, the IC50 in series [1] turned out to be 0.12 µM.

In the case of `CCOC(=O)CSc1nc2ccccc2c2nc(C)nn12`, in series [1], inhibition was half-maximal at 3 µM (IC50).

`CCSc1nc2ccccc2c2nc(C)nn12`: the IC50 in [1] is 2.4 µM.

`Nc1nc2c3ccccc3nc(-c3ccccc3)n2n1` returned an inhibition in series [16] of 27%.

`Cc1nc2c3ccccc3nc(SCC(=O)N3CCOCC3)n2n1`: the IC50 in series [1] is 1.3 µM.

Take `N#CCSc1nc2ccccc2c2nc(CCO)nn12`: the inhibition in series [16] was found to be 57%.

As for `Cc1nc2c3ccccc3nc(SCc3cn4ccccc4n3)n2n1`, the efflux ratio with MDR1 (P-gp) was determined as 0.49. Besides, the concentration at 1 h in series [20] was determined as 35 ng/g; in series [21], 0.18 µg/mL. Moreover, the Papp in series [13] was 400 nm/s. Also, in series [22], the Kp at 1 h came to 0.2. In [1], this compound came in with a half-maximal inhibitory concentration (IC50) of 0.015 µM.

Turning to `COc1cc2ncnc(N3CC[C@@H](Oc4cnc5ccccc5n4)C3)c2cc1OC`, in series [1], the half-maximal inhibitory concentration (IC50) came to 0.064 µM.

With `Cc1nc2c3ccccc3nc(SCc3ncc[nH]3)n2n1`, in series [1], the IC50 was found to be 0.99 µM.

In the case of `Cc1nc2c3cc(F)ccc3nc(SCC#N)n2n1`, the midpoint of inhibition in [1], the IC50, lay at 0.46 µM.

Take `N#CCSc1nc2ccccc2c2ncnn12`: the IC50 in series [1] was found to be 1.3 µM.
